Experiment [1] concerns APESV. Description: Greenhouse test, post-emergence (PO) application, foliar effect. It counts as in vivo, Apera spica-venti. Conditions: (A) 50, (B) 20, mixture 50 + 20 g of AS/ha, 3 weeks after application. From the text:
(§1) The 1:1 mixture of the two soil types was used specifically for cultivating small-seeded dicotyledonous weed since the standard field soil on its own tends to silt up, which may have an adverse effect on the emergence of small-seeded weeds. The resistances mentioned in the tables were confirmed beforehand in standard monitoring experiments. Nevertheless, the origins examined may have additional, hitherto unconfirmed resistances to various mechanisms of action.
(§2) The pots were then cultivated in a greenhouse (12-16 h light, temperature day 20-22° C., night 15-18° C.) until the time of application. The pots were treated at various BBCH stages of the seeds/plants on a laboratory track sprayer with spray liquors comprising the compositions according to the invention, mixtures of the prior art or the individual components. Application of the active compounds or active compound combinations and wetting agents formulated as WG, WP, EC or otherwise was carried out at the appropriate growth stages of the plants. The amount of water used for spray application was 100-600 l/ha. After the treatment, the plants were returned to the greenhouses and fertilized and watered as required. The pots were cultivated in a greenhouse (12-16 h light, temperature day 20-22° C., night 15-18° C.).
(§3) 3 weeks after the application, the foliar effect was evaluated on a scale of 0-100%:
(§4) 0%=no noticeable effect compared to untreated plants
(§5) 100%=full effect compared to untreated plants
(§6) The following abbreviations were used: • BBCH the BBCH code provides information about the morphological development stage of a plant. Officially, the abbreviation denotes the Biologische Bundesanstalt, Bundessortenamt and CHemische Industrie [Federal Biological Institute for Agriculture and Forestry, Federal Office for Crop Plant Varieties, Chemical Industry]. The range of BBCH 00-10 denotes the germination stages of the seeds until surface penetration. The range of BBCH 11-25 denotes the leaf development stages until stocking (corresponds to the number of tillers or side-shoots). • PE pre-emergence soil application; BBCH of the seeds/plants 00-10 • PO post-emergence application on the green parts of the plants; BBCH of the plants 11-25 • IU soil loamy silt—standard field soil • l/ha liters per hectare • S sensitive—the weed populations are sensitive to the active compounds tested • TSR target-site resistance. The weed populations comprise biotypes having a site-of-action-specific resistance, i.e. the binding site at the site of action is modified as a result of natural mutations in the gene sequence so that the active compounds are no longer able to bind, or bind in an unsatisfactory manner, and are therefore no longer able to act. • NTR non-target-site herbicide resistance; this is differentiated, inter alia, into EMR (Enhanced Metabolic Resistance) (the weed populations comprise biotypes having metabolic resistance, i.e. the plants are capable of metabolizing the active compounds more quickly via enzyme complexes, i.e. the active compounds are degraded more quickly in the plant), into reduced penetration into the plant, reduced translocation in the plant, accelerated excretion. […]

Experiment [2] concerns AMATA. The description is as above. It counts as in vivo, Amaranthus rudis. Conditions: (A) 50, (B) 20, mixture 50 + 20 g of AS/ha, 3 weeks after application.
Source text: as §1, §2, §3, §4, §5, §6

The test system of experiment [3] is ERIBO. Description: Greenhouse test, pre-emergence (PE) soil application. It counts as in vivo, Erigeron bonariensis. Further details: key: % effect: 0 = no effect, 100 = full effect vs untreated.
Source text: as §1, §2, §3, §4, §5, §6

The test system of experiment [4] is ALOMY. Description: Greenhouse test, post-emergence (PO) application, foliar effect. Conditions: ALOMY sensitive, (A) 50, (B) 20, mixture 50 + 20 g of AS/ha, 3 weeks after application. It counts as in vivo, Alopecurus myosuroides.
Source text: as §1, §2, §3, §4, §5, §6

The subject of experiment [5] is ERICA. Described as above. It counts as in vivo, Erigeron canadensis. Conditions: (A) 50, (B) 20, mixture 50 + 20 g of AS/ha, 3 weeks after application.
Source text: as §1, §2, §3, §4, §5, §6

Experiment [6] deals with LOLSS. The experiment is described as above. It counts as in vivo, Lolium spp. To be noted: (A) 50, (B) 20, mixture 50 + 20 g of AS/ha, 3 weeks after application.
Source text: as §1, §2, §3, §4, §5, §6

The test system of experiment [7] is AMATA. Kind of experiment: Greenhouse test, pre-emergence (PE) soil application. It counts as in vivo, Amaranthus rudis. Further details: key: % effect: 0 = no effect, 100 = full effect vs untreated.
Source text: as §1, §2, §3, §4, §5, §6

Experiment [8] deals with APESV. The description is as above. It counts as in vivo, Apera spica-venti. Further details: key: % effect: 0 = no effect, 100 = full effect vs untreated.
Source text: as §1, §2, §3, §4, §5, §6

The test system of experiment [9] is BIDSU. Description: Greenhouse test, post-emergence (PO) application, foliar effect. It counts as in vivo, Bidens subalternans. Conditions: BIDSU sensitive, (A) 50, (B) 20, mixture 50 + 20 g of AS/ha, 3 weeks after application.
Source text: as §1, §2, §3, §4, §5, §6

Setting [10] is: APESV resistant - group B (TSR, NTR) and K1/3 (NA).
[11] abbreviates: AMATA resistant - group B (TSR), C1 (TSR).
Where [12] appears, read: ERICA resistant - group B (NA) and G (NTR).
Setting [13] is: LOLSS resistant - group G (NTR).
Where [14] appears, read: LOLSS resistant group A (TSR, NTR), B (NTR) and C2 (NA).
[15] abbreviates: LOLSS resistant group A (TSR, NTR), B (TSR, NTR) and C2 (NA).
Where [16] appears, read: group (B) compound alone, 20 g of AS/ha.

Structures are written as SMILES.

Consider `Cc1ccc2c(c1)[C@H](Nc1nc(N)nc(C(C)F)n1)[C@@H](C)C2` (stereo partly drawn) [(A), indaziflam], for which the foliar effect worked out at 60% in [1] (setting [10]); 65% in [1] (APESV sensitive); 40% in experiment [2] (setting [11]); 50% in [2] (AMATA sensitive); 75% in [4]; 50% in experiment [5] (setting [12]). Also, the foliar effect in experiment [5] (ERICA sensitive) is reported as 50%; in experiment [6] (setting [13]), 65%; in experiment [6] (setting [14]), 60%; in experiment [6] (setting [15]), 60%; in [6] (LOLSS sensitive), 75%; in experiment [9] it was 40%. Besides, the “effect on ERIBO resistant - group B (NA) and G (NTR)” value (“effect on ERIBO resistant - group B” for short) in experiment [3] ((A) alone, 12.5 g of AS/ha) is 60. The “effect on ERIBO sensitive” value in [3] ((A) alone, 12.5 g of AS/ha) turned out to be 70. Further, the “effect on AMATA resistant - group B (TSR), C1 (TSR)” value (“effect on AMATA resistant - group B” below) in experiment [7] ((A) alone, 12.5 g of AS/ha) came out at 70. In addition, the “effect on AMATA sensitive” value in experiment [7] ((A) alone, 12.5 g of AS/ha) is 70. In [8] ((A) alone, 12.5 g of AS/ha), the “effect on APESV resistant - group B (TSR, NTR) and K1/3 (NA)” value (shortened to “effect on APESV resistant - group B”) was found to be 70. Further, in experiment [8] ((A) alone, 12.5 g of AS/ha), the “effect on APESV sensitive” value was 90.
Take `COc1cc(OC)nc(NC(=O)NS(=O)(=O)c2ncccc2C(F)(F)F)n1` [(B1), flazasulfuron]: the foliar effect in experiment [1] (setting [10]) amounted to 30%; in [1] (APESV sensitive), 100%; in experiment [2] (setting [11]), 50%; in experiment [2] (AMATA sensitive), 60%; in experiment [4], 100%; in [5] (setting [12]), 50%. Besides, the foliar effect came to 90% in [5] (ERICA sensitive); 60% in experiment [6] (setting [13]); 60% in experiment [6] (setting [14]); 30% in [6] (setting [15]); 95% in experiment [6] (LOLSS sensitive); 70% in experiment [9]. The “effect on ERIBO resistant - group B” value in experiment [3] (setting [16]) is given as 0. For the same compound, the “effect on ERIBO sensitive” value in [3] (setting [16]) stood at 70. Besides, the “effect on AMATA sensitive” value in experiment [7] (setting [16]) is recorded as 70. The “effect on APESV resistant - group B” value in experiment [8] (setting [16]) stood at 40. Moreover, the “effect on APESV sensitive” value in experiment [8] (setting [16]) stood at 85.
For the compound `COc1cc(OC)nc(NC(=O)NS(=O)(=O)c2cc(NC=O)ccc2C(=O)N(C)C)n1` [(B2), foramsulfuron], the foliar effect amounted to 0% in experiment [1] (setting [10]); 100% in experiment [1] (APESV sensitive); 90% in experiment [2] (setting [11]); 40% in [2] (AMATA sensitive); 100% in experiment [4]; 40% in experiment [5] (setting [12]). Further, the foliar effect came to 50% in experiment [5] (ERICA sensitive); 50% in experiment [6] (setting [13]); 60% in experiment [6] (setting [14]); 40% in experiment [6] (setting [15]); 100% in experiment [6] (LOLSS sensitive); 30% in [9]. Also, the “effect on ERIBO resistant - group B” value in experiment [3] (setting [16]) stood at 0. In addition, in [3] (setting [16]), the “effect on ERIBO sensitive” value turned out to be 100. Besides, the “effect on AMATA sensitive” value in [7] (setting [16]) is listed as 60. The “effect on APESV resistant - group B” value in experiment [8] (setting [16]) amounted to 20. The “effect on APESV sensitive” value in [8] (setting [16]) was 95.
As to `CCS(=O)(=O)c1cccnc1S(=O)(=O)NC(=O)Nc1nc(OC)cc(OC)n1` [(B3), rimsulfuron], the foliar effect in experiment [1] (setting [10]) was determined as 20%; in experiment [1] (APESV sensitive) it was 100%; in [2] (setting [11]) it was 90%; in [2] (AMATA sensitive) it was 70%; in experiment [4] it was 100%; in experiment [5] (setting [12]), 60%. The foliar effect was determined as 90% in [5] (ERICA sensitive); 60% in experiment [6] (setting [13]); 60% in [6] (setting [14]); 15% in experiment [6] (setting [15]); 95% in experiment [6] (LOLSS sensitive); 70% in [9]. Also, the “effect on ERIBO resistant - group B” value in experiment [3] (setting [16]) is 0. Also, the “effect on ERIBO sensitive” value in experiment [3] (setting [16]) was 70. The “effect on AMATA sensitive” value in experiment [7] (setting [16]) was 70. Also, the “effect on APESV resistant - group B” value in [8] (setting [16]) was determined as 35. The “effect on APESV sensitive” value in experiment [8] (setting [16]) is 93.
Turning to `CCOC(=O)c1ccccc1S(=O)(=O)NC(=O)Nc1nc(Cl)cc(OC)n1` [(B4), chlorimuron-ethyl], the foliar effect in experiment [1] (setting [10]) is on record as 0%; in [1] (APESV sensitive), 100%; in experiment [2] (setting [11]) it was 60%; in experiment [2] (AMATA sensitive) it was 30%; in experiment [4], 100%; in experiment [5] (setting [12]), 60%. In addition, the foliar effect was 80% in experiment [5] (ERICA sensitive); 50% in [6] (setting [13]); 55% in experiment [6] (setting [14]); 0% in experiment [6] (setting [15]); 35% in experiment [6] (LOLSS sensitive); 60% in experiment [9]. For the same compound, the “effect on ERIBO resistant - group B” value in experiment [3] (setting [16]) stood at 0. Also, the “effect on ERIBO sensitive” value in experiment [3] (setting [16]) is reported as 100. Moreover, the “effect on AMATA resistant - group B” value in experiment [7] (setting [16]) turned out to be 50. In experiment [7] (setting [16]), the “effect on AMATA sensitive” value was 60. Further, in experiment [8] (setting [16]), the “effect on APESV resistant - group B” value came to 40. For the same compound, the “effect on APESV sensitive” value in [8] (setting [16]) is 90.
With `COC(=O)c1csc(C)c1S(=O)(=O)NC(=O)n1nc(OC)n(C)c1=O` [(B5), thiencarbazone-methyl], the foliar effect in experiment [1] (setting [10]) came out at 0%; in experiment [1] (APESV sensitive), 100%; in [2] (setting [11]) it was 40%; in [2] (AMATA sensitive), 30%; in experiment [4], 100%; in experiment [5] (setting [12]), 60%. Also, the foliar effect turned out to be 70% in experiment [5] (ERICA sensitive); 40% in experiment [6] (setting [13]); 50% in experiment [6] (setting [14]); 0% in experiment [6] (setting [15]); 85% in experiment [6] (LOLSS sensitive); 60% in experiment [9]. Further, the “effect on ERIBO resistant - group B” value in experiment [3] (setting [16]) is on record as 0. Moreover, in [3] (setting [16]), the “effect on ERIBO sensitive” value worked out at 60. Also, in experiment [7] (setting [16]), the “effect on AMATA resistant - group B” value amounted to 40. In [7] (setting [16]), the “effect on AMATA sensitive” value worked out at 60. Also, the “effect on APESV resistant - group B” value in [8] (setting [16]) came out at 20. Moreover, in [8] (setting [16]), the “effect on APESV sensitive” value worked out at 95.

Source of the values: patent US9439430B2, “Method of controlling resistant harmful plants” (priority 2012, dated 2016).
